Reference: patent US7166612B2, “Methods for reducing platelet activation platelet aggregaton or thrombosis” (Beth Israel Deaconess Medical Center, priority 2001, dated 2007)

Columns and labels:
mouse platelets = conditions: in words
[1] = test system: laser-induced thrombi in cremaster arterioles; assay type: in vivo
Text: A preferred animal model involves intravital microscopy of laser-induced thrombi. The method is described by Rosen et al., 2001, Am J Pathol 158, 1613–1622, which is incorporated herein by reference. Minor variations of that method were employed as described below.
Experimental mice are pre-anesthetized and surgically prepared. A tracheal tube is placed to facilitate breathing and the jugular vein is canulated to allow for maintenance of anesthetic and introduction of compound. The cremaster muscle is then exteriorized. The muscle is affixed over a glass slide, allowing illumination from below. A steady drip of a sodium-bicarbonate buffered salt solution is maintained throughout the experiment to keep the exposed muscle moist. Blood flow in the muscle is visualized using a 40× water immersion lens and epi-illuminated with an appropriately filtered light source. Alexa 488-labeled anti-mouse CD41 antibody is injected through the jugular canulus to label platelets in vivo.
Thrombosis is initiated by damaging the vessel wall (of a 30 μm vessel) with a laser pulse from a MicroPoint LASER attached to the microscope. A LASER pulse is delivered, causing damage in an area smaller than 1 μm. The recruitment of platelets to the thrombus is then monitored by the accumulation of (activated) Alexa 488-labeled platelets at the ablation site using fluorescence microscopy, and the process is recorded digitally. The method thus permits in vivo analysis of platelet activation as measured by platelet aggregation and thrombosis.
The degree of embolization in an untreated mouse can be quantified using software for image analysis, e.g., BioQuant True Color Windows (Biometrics, Nashville, Tenn.), as described in Rosen et al., 2001, supra. The software package permits the determination of the “integrated optical density” or IOD of the thrombus.
Using quantitative intravital fluorescence videomicroscopy with high temporal resolution (111 images/second), the effect of PDE3 inhibition on the platelet recruitment into thrombi was directly observed over time. Platelets were fluorescently labeled by infusing rat-anti-mouse CD41 and Alexa 488-anti-rat IgG through a cannulated jugular vein. The cremaster microvasculature was exposed and mapped and suitable arteriole segments were selected for laser-induced injury. A series of control injuries were generated prior to infusion of the inhibitory compound. The power and the number of laser pulses required to generate each thrombus was recorded. Platelet accumulation to the thrombi following laser ablation was recorded using digital videomicroscopy. The thrombus total fluorescence in each frame of the videos was analyzed using Slidebook software for digital videomicroscopy. The pyridazinone compound was then infused. Following a 15 minute incubation, a series of experimental injuries were generated 250 μm proximal, with relationship to blood flow, of the first injury and the resultant thrombi were recorded. The power and the number of pulses required to induce the control thrombus was used to induce the experimental thrombus. The control and experimental thrombi constituting a pair were compared for statistical analysis. The total fluorescence intensity of the thrombi before and after the infusion of pyridazinone compound was recorded.
Images from a representative experiment of the recruitment of fluorescently-labeled […] platelets into a growing thrombus over time is shown in FIG. 9A.

platelets [2] = experiment: agonist-induced platelet granule secretion (P-selectin expression, flow cytometry); assay type: cell-based, human
Protocol: In order to assay platelet activation by cell surface marker expression, fresh PRP is isolated from donors who have not ingested aspirin for two weeks prior to donation. PRP (40 μl) is incubated with known or suspected inhibitor in DMSO or DMSO alone for 15 min. The sample is then incubated with the indicated agonist (e.g., SFLLR) for 10 min. Following incubation of the sample with the indicated agonist, 10 μl of reaction mixture is transferred to 5 μl of phycoerythrin (PE)-conjugated AC 1.2 anti-P-selectin antibody (for assessment of P-selectin surface expression) or fluorescein isothiocyanate (FITC)-conjugated PAC-1 antibody (for assessment of GPIIbIIIa activation). PBS (500 μl) is added to the sample after a 20 min incubation and the platelets are analyzed immediately by flow cytometry. Flow cytometry can be performed using, for example, a Becton-Dickinson FACSCalibur flow cytometer or its equivalent. Fluorescent channels are set at logarithmic gain. Ten thousand particles are acquired for each sample. A 530/30 band pass filter is used for FL-1 fluorescence. A 585/42 band pass filter is used for FL-2 fluorescence. FITC is measured in the FL-1 channel and PE is measured in the FL-2 channel. Data are analyzed using, for example, CellQuest software on a Macintosh PowerPC, or their equivalents. […]
Each of the compounds was tested for inhibition of platelet activation in response to the agonists SFLLR (a thrombin mimic), U46619 (a thromboxane A2 mimic), ADP and the phorbol ester PMA.
Compounds were also tested by flow cytometry for the inhibition of SFLLR-induced GPIIbIIIa activation and P-selectin expression. In these experiments, freshly obtained PRP was prepared from healthy volunteers who had not ingested aspirin for two weeks prior to donation. Forty μl of PRP was incubated with inhibitor in DMSO or DMSO alone for 15 min. The sample was then incubated with the indicated agonist for 10 min. Following incubation of the sample with the indicated agonist, 10 μl of reaction mixture was transferred to 5 μl of PE-conjugated AC1.2 anti-P-selectin antibody (for assessment of P-selectin surface expression) or FITC-conjugated PAC-1 antibody (for assessment of GPIIbIIIa activation). PBS (500 μl) was added to the sample after a 20 min incubation and the platelets were analyzed immediately by flow cytometry. Flow cytometry was performed using a Becton-Dickinson FACSCalibur flow cytometer. Fluorescent channels were set at logarithmic gain. Ten thousand particles were acquired for each sample. A 530/30 band pass filter was used for FL-1 fluorescence. A 585/42 band pass filter was used for FL-2 fluorescence. FITC was measured in the FL-1 channel and PE was measured in the FL-2 channel. Data were analyzed using CellQuest software on a MacIntosh PowerPC.
Compound was tested for its ability to inhibit SFLLR-, U46619-, ADP-, PMA-, and collagen I-induced platelet α-granule secretion. In these assays, platelets were incubated with increasing doses of compound for 30 minutes. The platelets were then exposed to a maximally stimulatory dose of the indicated agonist. P-selectin surface expression was analyzed by flow cytometry using phycoerythrin-anti-P-selectin to monitor for α-granule secretion.

[3] = test system: patients suffering intermittent claudication; conditions: cited from earlier work
[4] = test system: PGE1-induced cAMP levels in platelets; experiment: augmentation of PGE1-induced cAMP levels in platelets; assay type: cell-based, human; conditions: in words
Protocol: (A) Compound was tested for its ability to inhibit SFLLR-, U46619-, ADP-, PMA-, and collagen I-induced platelet α-granule secretion. (B) The effect of the compound on PGE1-stimulated cAMP elevation was analyzed. Platelets were incubated with increasing doses of pyridazinone compound for 30 minutes prior to the 2 minute incubation with PGE1. Platelets were subsequently lysed and cAMP level was assayed using a commercially available ELISA kit (Liao et al., 1998, Eur J Pharmacol 349, 107–14). […] Error bars represent mean ±1 SD (n=4), *P<0.001.
One frequent target of anti-platelet agents is phosphodiesterase III (PDE III). […] The assay is performed as described by Liao et al., 1998, Eur J Pharmacol 349,107–114, incorporated herein by reference. Briefly, aliquots of PRP are exposed to increasing concentrations of the agent for 20 minutes. The PRP is then challenged with 1 μM PGE1 for 2 min The reaction is stopped by adding 10 mM EDTA, followed immediately by boiling for 2 min. The mixture is cooled to 4° C. and the precipitated protein is pelleted. cAMP content in the supernatant is quantitated using an enzyme immunoassay kit (Pharmacia-Amersham, NJ) according to the instructions of the manufacturer.
In order to assess whether the compounds useful according to the invention might act through inhibition phosphodiesterase III, each was tested for its effect on PGE1-induced cAMP increase. Determination of platelet cAMP levels was performed as described by Liao et al., 1998, supra. Aliquots of PRP were exposed to increasing concentrations of the indicated compounds for 20 min. PRP was then challenged with 1 μM PGE1 for 2 min. The reaction was stopped with the addition of 10 mM EDTA followed immediately by boiling for 2 min. The mixture was then cooled to 4° C. and the precipitated protein was pelleted. Cyclic AMP content in the supernatant was then quantified using an enzyme immunoassay kit (Pharmacia-Amersham, NJ) according to the instructions of the manufacturer.

[5] = test system: platelet protein palmitoylation; experiment: incorporation of [3H]-palmitate into platelet proteins; assay type: cell-based; conditions: 100 μM compound; 20 μM or 200 μM SFLLRN; in words
Protocol: Platelets were labeled with [^3H]-palmitate for 2 hours in the absence (lanes 1, 2, and 3) or presence (lanes 4, 5, and 6) of 100 μM JF081204{5C} for 2 hours. Labeled platelets were then incubated with 0 μM ([…]), 20 μM (lanes 2 and 5), or 200 μM SFLLRN (lanes 3 and 6). Platelet samples were lysed, separated by SDS-PAGE, Western blotted, and visualized with a tritium imager screen (Panel a). The activation of platelets by SFLLRN led to an increase incorporation of [^3H]-palmitate into platelet proteins, whereas the presence of JF081204{5C} inhibited this activation-dependent [^3H]-palmitate incorporation (Panel b). Western blot membrane from panel (a) was stained with Ponceau S to visualize proteins in the platelet lysates.
The incorporation of [^3H]-palmitate into platelet intracellular proteins was examined to determine the effect of JF081204{5C} on platelet protein palmitoylation. […] Exposure of platelets to either 20 μM or 200 μM SFLLRN increased the intensity of the labeling. Incubation of platelets with 100 μM of JF081204 {5C} inhibited the increase in [^3H]-palmitate incorporation induced by either 20 μM or 200 μM SFLLRN.

platelets [6] = experiment: platelet aggregation (aggregometer); assay type: cell-based, human; conditions: in words
Protocol: Platelet aggregation profiling is a standard methodology, generally performed with an instrument adapted for that express purpose, for example, a Platelet Aggregation Profiler (BioData, Horsham, Pa.). The assays can generally be performed according to the instructions of the manufacturer. As exemplary conditions, 400 μl of PRP are incubated with inhibitor for 15 minutes at room temperature. The sample is then incubated for 3 minutes at 37° C. in the Platelet Aggregation Profiler. The instrument is calibrated with platelet poor plasma serving as a blank. A baseline tracing is established by monitoring the light transmittance of PRP being stirred at 1200 rpm. Aggregation is initiated by the addition of SFLLR (200 μM) and the percent of platelet aggregation is measured by the change in light transmittance for 6 minutes following addition of SFLLR.

Compound: 9-methylene-4-(alkyl)-2,3,4,9-tetrahydro-1H-cyclopenta(b)quinoline
- activation of mouse platelets by several platelet agonists (mouse platelets): inhibits activation of mouse platelets
- thrombosis following laser-induced injury (reduction) ([1]; bolus 6 mg/kg/5 min then continuous infusion 3 mg/kg/90 min, 36 thrombi in 5 mice): greater than 80%

Compound: CC1CC(=O)NN=C1c1ccc(Cl)cc1 (stereo not drawn) [Structure 9, 6-(4-chlorophenyl)-5-methyl-4,5-dihydro-5 methyl-3(2H)-pyridazinone]
- effect on PMA-induced platelet activation (platelets [2]; in words): did not inhibit

Compound: O=C1CCc2cc(OCCCCc3nnnn3C3CCCCC3)ccc2N1 [cilostazol]
- increase of the distance of pain free walking [3]: up to 59%

Compound: Cn1cc(/C=N/NC(N)=O)c2ccccc21 [2-[(1-methyl-1H-indol-3-yl)methylene]-hydrazinecarboxamide]
- effect on ADP-induced activation (platelets [2]; ADP-induced, in words): little effect
- effect on PMA-induced platelet activation (platelets [2]; in words): little effect
- effect on PGE1-stimulated cAMP levels in platelets [4]: augmented cAMP levels

Compound: CCCCCn1c2c(c(=N)c3ccccc31)CCC2 [JF081204{5C}]
- SFLLRN activation-dependent [3H]-palmitate incorporation into platelet proteins [5]: inhibited
- inhibition of U46619- and collagen-induced platelet aggregation (platelets [6]): not effective
- IC50s for U46619-, A23187-, and PMA-induced P-selectin expression less potent than SFLLR (platelets [2]; U46619, A23187, PMA vs SFLLR): at least 150 fold
- median of maximum platelet accumulation compared to absence of compound ([1]; 3 mg/kg (P<0.002) and 6 mg/kg (P<0.02), in words): statistically significant decrease
- median stabilized platelet accumulation ([1]; 3 mg/kg (P<0.01) and 6 mg/kg (P<0.001), in words): dose-dependent inhibition
- delay in onset of platelet accumulation (time to 50% maximum platelet accumulation) ([1]; 1, 3 and 6 mg/kg, in words): statistically significant delay

Compound: Nc1cc2cccnc2c2ncccc12 [[1,10]Phenanthroline-5-ylamine, [1,10] Phenanthroline-5-ylamine]
- effect on PMA-induced platelet activation (platelets [2]; in words): did not inhibit
- effect on PGE1-stimulated cAMP levels in platelets [4]: failed to augment
